Reference: US20240216347A1, “BEZUCLASTINIB FORMULATIONS” (Cogent Biosciences, Inc., priority 2022, published 2024)
Values after ≈ are worked out from the molar mass of the structure shown.

Assays:
[1] = Solubility in organic solvents; format: physicochemical; conditions: organic solvent or mixture, thermodynamic from solid, 21° C., read-out: free drug concentration (solubility)
Description: (Table 3). A saturated suspension was prepared in each solvent and the samples were stirred overnight using a magnetic stirrer. The free drug concentration was determined by subjecting the samples to 7 minutes in an ultracentrifuge at 470,000× gravity. A 100 μL aliquot was withdrawn and diluted in 5× in DMSO and Methanol and tested by the HPLC method. Three (3) replicates were performed in each solvent. Bezuclastinib was poorly soluble (free drug concentration <5.0 mg/mL), other than DMSO (free drug concentration <20 mg/mL).

[2] = human, in vivo, po
Source text: (§2) This Example summarizes a single-center, open-label, 2-period, randomized, crossover study of Formulations A and B of bezuclastinib at single ascending dose levels in healthy adult subjects to assess pharmacokinetics and relative bioavailability. Subjects were randomized to receive either a single dose of Formulation A fasted, or a single dose of Formulation B fasted. After a washout period of 21 days, subjects were then crossed over to receive the other formulation. […] Blood draws were taken pre-dose, and 0.5, 1, 2, 3, 4, 6, 8, 12, 16, 24, 48, 72, 96, 120, 144, 168, 192, and 336 h post-dose.

[3] = Influence of pH on solubility; format: physicochemical; conditions: Simulated Intestinal Fluid with 0.5% bile salts, fassgf or other biorelevant, thermodynamic from solid; SIF with 0.5% bile salts, 37° C., pH 4.0, 5.5 and 6.0; read-out: free drug concentration (solubility)
Description: A saturated bezuclastinib suspension was prepared in each media and the samples were stirred overnight using a magnetic stirrer. The total drug concentration was determined by subjecting the samples to 3 minutes in a microcentrifuge at 19,500× gravity. The free drug concentration was determined by subjecting the samples to 7 minutes in an ultracentrifuge at 470,000× gravity. A 100 μL aliquot was withdrawn and diluted in 5× in DMSO and Methanol and tested by the HPLC method. Six (6) replicates were performed in each media. In all conditions, bezuclastinib was poorly soluble (free drug concentration <20 μg/mL).

[4] = Pka of Bezuclastinib (Table 1); format: physicochemical; conditions: Weak Base
Source text: (§1) Bezuclastinib has a high melting point and is insoluble in aqueous and most organic solvents. No suitable salt or co-crystal was found.

clinical = conditions: human, in vivo, po
Source text: as §2

[5] = Non-sink dissolution test in simulated intestinal fluid, no gastric transfer; format: physicochemical; conditions: SIF 0.5% bile salt, pH 6.5, 37° C., 1 mg API per mL
Description: Non-sink dissolution testing was used to determine the kinetic solubility as well as the extent and duration of supersaturation of amorphous dispersions. Spray dried samples were examined under non sink dissolution testing conditions in FIGS. 2-5. Non sink testing was performed with and without a gastric transfer at various bile salt concentrations in biorelevant media including simulated intestinal fluid at pH 6.5 and FaSSIF at pH 6.5. Total drug and free drug concentration were determined as described in Example 2.
Samples were loaded at a concentration of 1 mg API per mL of media. The SDD's tested were 10% and 20% drug loading HPMCAS-L SDD, 20% HPMCAS-H and 20% HPMCAS-L with 5 mg/mL HPMCAS-H added.

[6] = Solubility in biorelevant media; format: physicochemical; conditions: fassgf or other biorelevant, thermodynamic from solid; all biorelevant media (0.01N HCl, FaSSIF, SIF, FaSSGF), 37° C.; read-out: free drug concentration (solubility)
Description: Biorelevant media included 0.01N hydrochloric acid, Fast State Simulated Intestinal Fluid (FaSSIF) with and without bile salts, Simulated Intestinal Fluid (SIF) with various concentrations of bile salts (0, 0.5% and 1%) and Fasted State Simulated Gastric Fluid (FaSSGF). A saturated suspension was prepared in each media and the samples were stirred overnight using a magnetic stirrer. The free drug concentration was determined by subjecting the samples to 7 minutes in an ultracentrifuge at 470,000× gravity. A 100 μL aliquot was withdrawn and diluted in 5× in DMSO and Methanol and tested by the HPLC method described in Table 2. Six (6) replicates were performed in each media. In all cases, bezuclastinib was practically insoluble (free drug concentration ≤1.2 μg/mL).

[7] = LogD of Bezuclastinib (Table 1); format: physicochemical
Source text: as §1

[8] = Aqueous solubility of Bezuclastinib; format: physicochemical; conditions: aqueous buffer
Description: Compound (I) was first disclosed in U.S. Pat. No. 9,676,748 B2 and U.S. Pat. No. 10,301,280 B2. In the almost 10 years since, Compound (I) has proven to be difficult to prepare in a tablet form suitable for commercial development. In particular, Compound (I) has a very high melting point (>365° C.) and is practically insoluble in aqueous conditions (0.32 ug/mL at pH 7.0), and most organic solvents. In addition, no suitable salt or co-crystal has been found for of Compound (I), which itself readily crystalizes when forming tablets. Finally, existing tablet forms of Compound (I) allowed a relatively small proportion of API to be loaded into the tablet form, necessitating repeated dosing of many tablets, potentially jeopardizing patient compliance.
as §1

[9] = tested on: cells with activating c-kit mutations in the catalytic region; conditions: Ma et al., 2002; cited from earlier work

Row | solubility ([1]; DMSO) [µg/mL] | solubility ([1]; organic solvents of Table 3 other than DMSO) [µg/mL] | median time to maximum concentration [2] [h] | solubility [3] [µg/mL] | pKa [4] | half-life (clinical) [h] | Microcentrifuge Assay @ 5 min (total drug) ([5]; 5 min) [µg/mL] | Ultracentrifuge Assay @ 5 min (free drug) ([5]; 5 min) [µg/mL] | Microcentrifuge Assay @ 60 min (total drug) ([5]; 60 min) [µg/mL] | Ultracentrifuge Assay @ 60 min (free drug) ([5]; 60 min) [µg/mL] | Microcentrifuge Assay @ 6 hrs (total drug) ([5]; 6 hrs) [µg/mL] | Ultracentrifuge Assay @ 6 hrs (free drug) ([5]; 6 hrs) [µg/mL] | solubility [6] [µg/mL] | logD [7] | solubility ([8]; aqueous conditions, pH 7.0, read-out: solubility in aqueous conditions) [µg/mL] | solubility ([8]; aqueous medium, pH = 7.0, read-out: Aqueous solubility) [µg/mL] | Structure (SMILES) | inhibition of cells with c-kit mutations in the catalytic region [9]
1 | < 20000 | < 5000 | 12 to 16 | < 20 | 2.86 | 48.6 to 71.4 | 2.0 | 1.5 | 3.4 | 1.6 | 2.0 | 1.7 | ≤ 1.2 | 3.46 | 0.32 (≈ 0.966 µM) | 0.31 (≈ 0.935 µM) | Cc1n[nH]c(C(=O)Nc2cnc3[nH]c(-c4ccccc4)cc3c2)c1C [Bezuclastinib, 3,4-dimethyl-N-(2-phenyl-1H-pyrrolo[2,3-b]pyridin-5-yl)-1H-pyrazole-5-carboxamide] | 
2 |  |  |  |  |  |  |  |  |  |  |  |  |  |  |  |  | Cc1ccc(NC(=O)c2ccc(CN3CCN(C)CC3)cc2)cc1Nc1nccc(-c2cccnc2)n1 [STI571] | did not inhibit the cells
